Laboratory results published in patent US20080261994A1, “CYCLOPROPANE COMPOUNDS AND PHARMACEUTICAL USE THEREOF” (Japan Tobacco Inc., priority 2003, published 2008).
Read-outs that look alike come from different tables or passages of the source.

Key:
Type in all cases: biochemical
[1] = molecular target: T1, aggrecanase-1 (Homo sapiens, UniProt O75173); assay: Aggrecanase-1 inhibitory action (Particle Assay, GAG release from aggrecan-containing polyacrylamide particles)
T1 sequence (O75173 213-837): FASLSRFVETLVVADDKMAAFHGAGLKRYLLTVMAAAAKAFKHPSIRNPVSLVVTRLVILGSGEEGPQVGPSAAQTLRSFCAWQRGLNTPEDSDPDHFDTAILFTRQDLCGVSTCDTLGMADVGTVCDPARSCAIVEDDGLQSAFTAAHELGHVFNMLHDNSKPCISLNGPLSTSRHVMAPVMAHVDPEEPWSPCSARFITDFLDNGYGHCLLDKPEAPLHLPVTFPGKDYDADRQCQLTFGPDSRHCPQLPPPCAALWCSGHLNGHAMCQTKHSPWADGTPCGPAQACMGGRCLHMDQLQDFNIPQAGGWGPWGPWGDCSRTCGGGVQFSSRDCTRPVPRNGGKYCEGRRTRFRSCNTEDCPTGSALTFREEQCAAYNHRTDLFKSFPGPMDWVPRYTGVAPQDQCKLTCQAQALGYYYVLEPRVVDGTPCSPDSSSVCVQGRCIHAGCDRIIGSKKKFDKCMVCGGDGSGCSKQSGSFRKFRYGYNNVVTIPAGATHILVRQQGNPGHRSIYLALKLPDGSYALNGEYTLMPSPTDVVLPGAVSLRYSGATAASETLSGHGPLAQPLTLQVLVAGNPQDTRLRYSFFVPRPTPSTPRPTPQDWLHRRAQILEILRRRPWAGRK
Outline: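 Readout was dimethylmethylene blue absorbance (595 nm) of glycosaminoglycan liberated into supernatant, calibrated with whale chondroitin sulfate. Substrate was aggrecan in polyacrylamide particles, digested 15 h at 37° C in Tris-HCl; TC50 (μM) derived from inhibition relative to no-enzyme and no-inhibitor controls.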

[2] = molecular target: T2, Recombinant Human MMP-13 (Homo sapiens, UniProt P45452); assay: MMP-13 inhibitory activity (MMP-13 specific fluorescent substrate with quencher)
T2 construct: purchased R&D systems 511-MM
Outline: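 IC50 (μM) derived from % inhibition, normalised to wells without enzyme and without inhibitor, fluorescence read at 325/405 nm. Enzyme and compound preceded addition of the quenched 7-MCA…DPA substrate; Tris-HCl buffer, 25 °C for 1 h, acetic-acid stop.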

[3] = molecular target: T3, MMP-1 (Homo sapiens, UniProt P03956); assay: MMP-1 inhibitory action (Type I collagen Activity Measurement kit, FITC-labeled collagen type I)
T3 sequence (P03956 100-469): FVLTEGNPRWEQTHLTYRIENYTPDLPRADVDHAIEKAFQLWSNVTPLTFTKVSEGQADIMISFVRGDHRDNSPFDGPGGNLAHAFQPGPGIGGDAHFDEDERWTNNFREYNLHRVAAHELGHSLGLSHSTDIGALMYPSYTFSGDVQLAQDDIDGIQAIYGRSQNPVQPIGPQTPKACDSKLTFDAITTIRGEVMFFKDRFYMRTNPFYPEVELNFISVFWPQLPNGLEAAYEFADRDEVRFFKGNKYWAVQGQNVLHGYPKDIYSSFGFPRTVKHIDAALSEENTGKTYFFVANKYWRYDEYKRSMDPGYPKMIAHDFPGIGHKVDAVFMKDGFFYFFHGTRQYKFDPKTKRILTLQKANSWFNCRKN

[4] = Experimental Example 1, read-out: IC50 AG1
[5] = Experimental Example 3, read-out: IC50 MMP13
[6] = Experimental Example 2, read-out: IC50 MMP1
[7] = aggrecanase-1 inhibitory action, read-out: IC50 AG1 (Experimental Example 1)
[8] = Recombinant Human MMP-13, fluorescent substrate, 25° C. for 1 h, read-out: IC50 MMP13 (Experimental Example 3)
[9] = MMP-1 inhibitory action, FITC-labeled collagen type I, 37° C. for 3 hr, read-out: IC50 MMP1 (Experimental Example 2)

| Structure (SMILES) | IC50 [1, 4] | IC50 [2, 5] | IC50 [3, 6] | IC50 [1, 7] | IC50 [2, 8] | IC50 [3, 9] |
| --- | --- | --- | --- | --- | --- | --- |
| CN1CCN(C(=O)CCc2ccccc2C2CC2(NS(=O)(=O)c2ccc(-c3cc(C(F)(F)F)on3)s2)C(=O)O)CC1 (stereo not drawn) [Example 2-232] |  |  |  | < 1000 nM | < 100 nM | ≥ 1000 nM |
| CC(C)CC(=O)N1CCN(S(=O)(=O)N[C@@]2(C(=O)O)C[C@@H]2c2ccccc2)CC1 [Example 2-513] | ≥ 1000 nM | ≥ 1000 nM | ≥ 1000 nM |  |  |  |
| CCC1[C@@H](c2ccccc2)[C@@]1(NS(=O)(=O)c1ccc(-c2cc(C(F)(F)F)on2)s1)C(=O)O (stereo partly drawn) [Example 2-327] | < 1000 nM | < 100 nM | < 1000 nM |  |  |  |
| CC1[C@H](c2ccccc2)[C@]1(NS(=O)(=O)N1CCN(C(=O)NCc2ccccc2)CC1)C(=O)O (stereo partly drawn) [Example 2-529] | ≥ 1000 nM | ≥ 1000 nM | ≥ 1000 nM |  |  |  |
| O=C(O)C1(NS(=O)(=O)c2ccc(-c3cc(C(F)(F)F)on3)s2)CC1c1cccc([N+](=O)[O-])c1 (stereo not drawn) [Example 2-199] |  |  |  | < 1000 nM | < 1000 nM | ≥ 10000 nM |
| O=C(O)Cc1cccc(C2CC2(NS(=O)(=O)c2ccc(-c3cc(C(F)(F)F)on3)s2)C(=O)O)c1 (stereo not drawn) [Example 2-212] |  |  |  | < 100 nM | < 1000 nM | ≥ 1000 nM |
| CC1[C@H](c2ccccc2)[C@]1(NS(=O)(=O)c1ccc(-n2cc(S(C)(=O)=O)cn2)s1)C(=O)O (stereo partly drawn) [Example 2-524] | < 100 nM | < 100 nM | < 100 nM |  |  |  |
| C[C@]1(c2ccccc2)C[C@@]1(NS(=O)(=O)c1ccc(N2CCOCC2)s1)C(=O)O [Example 2-421] | ≥ 1000 nM | ≥ 1000 nM | ≥ 10000 nM |  |  |  |
| C[C@]1(c2ccccc2)C[C@@]1(NS(=O)(=O)c1ccc(-c2cc(C(F)(F)C(F)(F)F)on2)s1)C(=O)O [Example 2-112] |  |  |  | < 1000 nM | ≥ 1000 nM | ≥ 10000 nM |
| CC1[C@H](c2ccccc2)[C@]1(NS(=O)(=O)c1cn2cc(-c3ccccc3)nc2s1)C(=O)O (stereo partly drawn) [Example 2-499] | < 1000 nM | < 100 nM | < 1000 nM |  |  |  |
| O=C(O)C1(NS(=O)(=O)c2ccc(-c3cc(C(F)(F)F)on3)o2)C2CCCc3ccccc3C21 (stereo not drawn) [Example 2-373] | ≥ 1000 nM | ≥ 1000 nM | ≥ 10000 nM |  |  |  |
| CC1[C@H](c2ccccc2)[C@]1(NS(=O)(=O)N1CCN(c2ccc(Cl)cc2F)CC1)C(=O)O (stereo partly drawn) [Example 2-460] | < 1000 nM | < 100 nM | ≥ 1000 nM |  |  |  |
| O=C(O)C1(NS(=O)(=O)N2CC=C(c3ccc(Cl)cc3)CC2)CC1c1ccccc1 (stereo not drawn) [Example 2-149] |  |  |  | ≥ 1000 nM | < 100 nM | ≥ 10000 nM |
| O=C(O)[C@]1(NS(=O)(=O)c2ccc(-n3cc(C(F)(F)F)cn3)nc2)C[C@@H]1c1ccccc1 [Example 2-558] | ≥ 1000 nM | < 1000 nM | ≥ 1000 nM |  |  |  |
| CC1[C@H](c2ccccc2)[C@]1(NS(=O)(=O)c1ccc(-n2cc(C#N)cn2)s1)C(=O)O (stereo partly drawn) [Example 2-580] | < 1000 nM | < 100 nM | ≥ 1000 nM |  |  |  |
| O=C(OCC1(c2ccccc2)CC1(NS(=O)(=O)c1ccc(-c2cc(C(F)(F)F)on2)s1)C(=O)O)N1CCOCC1 (stereo not drawn) [Example 2-306] | < 1000 nM | < 1000 nM | ≥ 1000 nM |  |  |  |
| C[C@]1(c2ccccc2)C[C@@]1(NS(=O)(=O)c1ccc(-c2cccc(NS(C)(=O)=O)c2)s1)C(=O)O [Example 2-453] | ≥ 1000 nM | < 1000 nM | ≥ 10000 nM |  |  |  |
| CC1[C@H](c2ccccc2)[C@]1(NS(=O)(=O)N1CCN(c2ccc(Br)cc2)CC1)C(=O)O (stereo partly drawn) [Example 2-458] | < 1000 nM | < 100 nM | ≥ 10000 nM |  |  |  |

Next, values leading:

| IC50 [1, 4] | IC50 [2, 5] | IC50 [3, 6] | IC50 [1, 7] | IC50 [2, 8] | IC50 [3, 9] | Structure (SMILES) |
| --- | --- | --- | --- | --- | --- | --- |
| < 1000 nM | < 1000 nM | ≥ 1000 nM |  |  |  | C[C@]1(c2ccccc2)C[C@@]1(NS(=O)(=O)c1ccc(-c2ccc3c(c2)OC(F)(F)O3)s1)C(=O)O [Example 2-544] |
|  |  |  | < 100 nM | < 100 nM | ≥ 10000 nM | O=C(NO)[C@]1(NS(=O)(=O)c2ccc(OCc3ccc(Cl)cc3Cl)cc2)[C@@H]2c3ccccc3C[C@@H]21 (relative stereo) [Example 2-13, (1R*,1aS*,6aS*)-1-[4-(2,4-dichloro-benzyloxy)-benzenesulfonylamino]-1,1a,6,6a-tetrahydro-cyclopropa[a]inden-1-carboxylic acid hydroxyamide] |
| < 1000 nM | < 100 nM | ≥ 1000 nM |  |  |  | CC1[C@H](c2ccccc2)[C@]1(NS(=O)(=O)c1ccc(-c2cn3ccccc3n2)s1)C(=O)O (stereo partly drawn) [Example 2-570] |
|  |  |  | < 100 nM | < 1000 nM | ≥ 10000 nM | CN(C)C(=O)Cc1ccccc1C1CC1(NS(=O)(=O)c1ccc(-c2ccc(Cl)cc2)s1)C(=O)O (stereo not drawn) [Example 2-204] |
|  |  |  | < 100 nM | < 100 nM | ≥ 10000 nM | CN(C)c1cccc([C@H]2C[C@@]2(NS(=O)(=O)c2ccc(-c3ccc(Cl)cc3)s2)C(=O)O)c1 [Example 2-176] |
| < 1000 nM | < 1000 nM | ≥ 10000 nM |  |  |  | CS(=O)(=O)CC1(c2ccccc2)CC1(NS(=O)(=O)c1ccc(-c2ccc(Cl)cc2)s1)C(=O)O (stereo not drawn) [Example 2-440] |
| ≥ 1000 nM | < 100 nM | ≥ 1000 nM |  |  |  | CC1[C@H](c2ccccc2)[C@]1(NS(=O)(=O)c1ccc(-c2nc3ccccc3s2)s1)C(=O)O (stereo partly drawn) [Example 2-591] |
| < 100 nM | < 100 nM | ≥ 1000 nM |  |  |  | O=C(O)C1(NS(=O)(=O)c2ccc(-c3ccc(Cl)cc3)s2)C2CCC(O)c3ccccc3C21 (stereo not drawn) [Example 2-412] |
| < 100 nM | < 100 nM | < 1000 nM |  |  |  | CC(C)c1cc(-c2ccc(S(=O)(=O)N[C@@]3(C(=O)O)C(C)[C@@H]3c3ccccc3)s2)no1 (stereo partly drawn) [Example 2-408] |
|  |  |  | ≥ 10000 nM | ≥ 10000 nM | ≥ 10000 nM | O=C(O)C1(CS(=O)(=O)c2ccc(-c3ccc(Cl)cc3)s2)CC1c1ccccc1 (stereo not drawn) [Example 2-187] |
| < 100 nM | < 100 nM | < 1000 nM |  |  |  | CC1[C@@H](c2ccccc2)[C@@]1(NS(=O)(=O)c1ccc(-c2cc(C(F)(F)F)on2)s1)C(=O)O (stereo partly drawn) [Example 2-288] |
